The text below walks through data of US20250345362A1, “MULTI-IONIC COMPLEX FOR THE PREVENTION OR TREATMENT OF INFLAMMATION” (YNIOS PHARMA, priority 2022, published 2025).

The subject of data set [1] is sensory neurons. In words: Myelinated sensory neurons with or without cisplatin: neuron count, neurite length, myelin sheath length (Examples 7 and 8a, curative protocol). Format: cell-based, rat. The note with it: for Average percentage of neurite length relative to control / Average percentage of sensory neuron count relative to control: isolated ions + cisplatin (12 μM, 24 h), Table 3. The procedure: Female rats with 15 days gestation were killed by cervical dislocation (Wistar rats; January Lab) and fetuses were removed from the uterus. Embryonic DRGs were collected and placed in an icy medium of Leibovitz 15 (L15; PanBiotech, Ref P04-27055, Batch: 5331021) containing 2% Penicillin-Streptomycin (PS; PanBiotech, ref: P06-07100, Batch: 9300621) and 1% bovine serum albumin (BSA; PanBiotech, ref: P06-1391100, lot: H210207). DRG were dissociated by trypsinization for 20 minutes (min) at 37° C. (Trypsin EDTA 1X; PanBiotech, Ref: P10-023100, Batch: 8600621). The reaction was halted by the addition of Dulbecco's modified Eagle medium (DMEM; PanBiotech, Ref: P04-03600, Batch: 1130721) containing DNase I grade II (0.1 mg/ml; PanBiotech, Ref: P60-37780100, Batch: H181015) and 10% fetal calf serum (FCS; Invitrogen, ref: 10270106, lot: 2319479). The cells were then mechanically dissociated by 3 passes through a 10 ml pipette. The cells were then centrifuged at 180×g for 10 min at +4° C. on a layer of BSA (3.5%) in medium L15. The supernatant was discarded and the cell pellets were resuspended in a defined culture medium consisting of Neurobasal (Invitrogen, Ref: 21103049, Batch: 2348949) supplemented with 2% B27; (Invitrogen, ref: 17504-044, Batch: 2336991), L-glutamine (2 mM; PanBiotech, Ref: P04-80100, Batch: 2770620), 2% PS and 50 ng/mL NGF (Sigma, Ref: N1408, Lot: SLCG2596). The viable cells were then counted in a Neubauer cytometer using the trypan blue exclusion test. The cells were seeded to a density of 12000 cells/wells in 96-well plates (pre-coated with poly-D-lysine; Greiner, Ref: 655940, Lot: E200933A) and were grown at 37° C. in humidified air (95%/CO2 (5%) atmosphere. Half of the middle was changed every 2 days with fresh medium. The cells are maintained for 7 days to allow the proliferation of Schwann cells and sensory neurons. On day 8, the medium is supplemented with 50 μg/mL of ascorbic acid (AA; Sigma, Ref 092902, Batch: 05316HJ-438) to initiate the differentiation of basal Schwann cells into myelinating Schwann cells.
Cis-diammineplatinum(II) dichloride (cisplatin; Sigma, ref: P4394, lot: MKCN8054) was reconstituted in DMSO at 24 mM (stock solution). The control environment was prepared under the same conditions. After 12 days of culture with AA, the primary sensory neurons were pretreated for 2 hours with the compositions of Example 1 or with a reference compound (NGF, 50 ng/ML) and then intoxicated with cisplatin. The cisplatin preparation was used on neurons at a final concentration of 12 μM diluted in control medium for 24 hours of incubation.
In parallel, the effect of isolated or combined ions two by two on the survival of sensory neurons and the length of neurites was also evaluated under the same conditions. The solutions are all prepared from chlorides of the ions tested.
The effect of ion combinations on sensory neuron survival and neurite length was evaluated under the same conditions as described above. The solutions are all prepared from chlorides of the ions tested.

For a further data set, the system named is IL-1β. The data set can be described thus: IL-1β in supernatant of LPS-stimulated human mononuclear blood cells. Format: cell-based. The note with it: for Results IL-1β (percentage relative to the vehicle): 2 h pretreatment, LPS 100 ng/mL 6 h; for reduction of IL-1β levels, in words: LPS 100 ng/mL, FIG. 7-9. Here is the method: (§1) Methods: Mononuclear blood cells are isolated from the blood of healthy donors through Ficoll density gradient (Ficoll-Paque PLUS; GE Healthcare; 11778538) with density gradient centrifuge tubes (SepMate; StemCell Technologies; 85450). The mononuclear blood cells are deposited (200000 cells per well) in 96-well plates, pretreated either with the vehicle (0.179% PBS) or with a composition according to the invention or ions alone (see Table 6) for 2 hours, then stimulated for 6 hours without (vehicle 0.002% H2O) or with lipopolysaccharides (LPS at 100 ng/mL; Invivogen, tlrl-b5lps) at 37° C., 5% C02 in an RPMI medium containing 10% fetal calf serum and 1% penicillin/streptomycin. After 6 hours of incubation, the culture supernatant is collected and stored at −20° C. until cytokine analysis. The level of cytokines (IL-1β and IL-18) is quantified in the culture supernatant by ELISA according to the manufacturer's instructions (R&D Systems; DY201, DY318-05). Table 6 summarizes the percentage of IL-1β and IL-18 cytokines measured for each condition relative to the vehicle (ns: not significant)

Another data set relates to IL-18. In words: IL-18 in supernatant of LPS-stimulated human mononuclear blood cells. The format is cell-based. To be noted: for Results IL-18 (percentage relative to the vehicle): 2 h pretreatment, LPS 100 ng/mL 6 h; for reduction of IL-18 levels, in words: LPS 100 ng/mL, FIG. 7-9. Here is the method:
as §1

Data set [2] has as its system sensory neurons. The data set can be described thus: Myelinated sensory neurons with or without cisplatin: neuron count, neurite length, myelin sheath length (Examples 7 and 8a, curative protocol). The format is cell-based, rat. The note with it: without cisplatin (healthy cells), Table 2.
The conditions of data set [3]: rats; cited from earlier work.
Data set [4] relates to sensory neurons. In words: Myelinated sensory neurons with or without cisplatin: survival, neurite length, myelin sheath length (Example 8b, protection protocol). The format is cell-based, rat. To be noted: cisplatin 12 μM, 24 hours. The procedure: The primary endpoint was the measurement of sensory neurons survival, the assessment of neurite length and myelin sheath length of sensory neurons after cisplatin intoxication and without intoxication.
Cis-diammineplatinum (II) dichloride (cisplatin; Sigma, ref: P4394, lot: MKCL0026) was reconstituted in medium at 10 mg/ml (stock solution). The control environment was prepared under the same conditions. After 12 days of culture with AA, primary sensory neurons were pretreated for 2 hours with a 3-concentration multi-ionic complex and then intoxicated with cisplatin. The cisplatin preparation was used on neurons at a final concentration of 12 μM diluted in control medium for 24 hours of incubation.
The concentrations of the multi-ionic complex were: • 1. TA6496: Li 10.37 mmol/kg, Mg 2.27 mmol/kg, K 16.88 mmol/kg • 2. TA6440: Li 5.76 mmol/kg, Mg 1.26 mmol/kg, K 9.38 mmol/kg • 3. TA6415: Li 1.73 mmol/kg, Mg 0.38 mmol/kg, K 2.81 mmol/kg
The following conditions were assessed: • Control medium • Control+cisplatin (12 μM, 24h) • Multi-ionic complex, at 3 different concentrations TA6496, TA6440 or TA6415+cisplatin (12 μM, 24h) • Multi-ionic complex, at 3 different concentrations TA6496, TA6440 or TA6415.
This study was performed with 6 wells per condition and duplicated for validation of results. The data included and analysed are the combined results of the 2 studies. […]

As for `[Cl-].[K+]` [K, potassium chloride], the “Average percentage of neurite length relative to control” value in the data set with sensory neurons [1] turned out to be 91%; in the data set on sensory neurons [2] it was 115%. Further, the “Average percentage of sensory neuron count relative to control” value in the data set on sensory neurons [1] came out at 58%; in the data set on sensory neurons [2], 117%. Besides, the “Results IL-1β (percentage relative to the vehicle)” value is given as 80.52% in the data set with IL-1β (listed as K - 660 mg/L) and 85.31% in the data set on IL-1β (listed as K - 880 mg/L). The “reduction of IL-1β levels, in words” value with IL-1β is “Neither magnesium, lithium, nor potassium, alone, demonstrated significant reductions”. Besides, the entries for the “Results IL-18 (percentage relative to the vehicle)” value in the data set with IL-18 (listed as K - 660 mg/L) and with IL-18 (listed as K - 880 mg/L) were 72.48% and 69.71%, respectively. In addition, the “reduction of IL-18 levels, in words” value in the data set with IL-18 is reported as “Neither magnesium, lithium, nor potassium, alone, demonstrated significant reductions”. Besides, in data set [3], the “intravenous lethal dose 50 (LD50) over 24 hours” value was 142 mg/kg.

`[Mn+2]` [Manganese]: in the data set with sensory neurons [1] (cisplatin 12 μM, 24 h), the “effect on neurite length, in words” value is “without demonstrating any significant effect” and the “effect on survival of sensory neurons (cisplatin-induced apoptosis), in words” value is given as “without demonstrating any significant effect”. For the same compound, the “effect on myelin sheath length, in words” value with sensory neurons [4] is recorded as “without demonstrating any significant effect”.

Take `[Cl-].[Cl-].[Mg+2]` [Mg, magnesium chloride]: the entries for the “Average percentage of neurite length relative to control” value in the data set on sensory neurons [1] and in the data set on sensory neurons [2] were 73% and 98%, respectively. For the same compound, the figures for the “Average percentage of sensory neuron count relative to control” value in the data set on sensory neurons [1] and with sensory neurons [2] were 68% and 108%, respectively. The figures for the “Results IL-1β (percentage relative to the vehicle)” value in the data set with IL-1β (listed as Mg - 55.4 mg/L) and in the data set on IL-1β (listed as Mg - 73.9 mg/L) were 100.91% and 97.41%, respectively. Further, the “reduction of IL-1β levels, in words” value in the data set with IL-1β was “Neither magnesium, lithium, nor potassium, alone, demonstrated significant reductions”. For the same compound, the “Results IL-18 (percentage relative to the vehicle)” value came to 102.41% with IL-18 (listed as Mg - 55.4 mg/L) and 95.28% in the data set with IL-18 (listed as Mg - 73.9 mg/L). For the same compound, in the data set on IL-18, the “reduction of IL-18 levels, in words” value is given as “Neither magnesium, lithium, nor potassium, alone, demonstrated significant reductions”.
